We go through five compounds from paper PMC12687449, “Membrane disruption attenuates agonist potency in prostanoid receptors” (Biochemical Journal, 2025).

Assay [1] addresses EP4 receptor conformation sensor (Homo sapiens, UniProt P35408). In words: FRET-based EP4 receptor conformation sensor stably expressed in HEK293 cells (intact, saponin-permeabilized, membrane fragments). The note with it: for response of about 10 times EC50 normalized to saturating PGE2 concentration: 830 nM 11-deoxy PGE2, pipetting protocol; for Schild plot slope value of fitted linear regression / pKB (Schild plot, abscissa intercept): versus PGE2. It is filed as cell-based. The protocol: (§1) The cells were washed once with external buffer and subsequently incubated 2 minutes for single-cell FRET measurements or 10 minutes for BRET measurements in 0.05% saponin (AppliChem, Darmstadt, Germany) dissolved in internal buffer. Afterward, the cells were washed five times for single-cell FRET measurements or three times for BRET measurements with internal buffer.
HEK293 cells stably expressing the EP4 receptor, IP receptor, or DP2 receptor conformation sensor were seeded on 15 cm Ø dishes and grown until optical confluence. The cells were washed once with Dulbecco’s PBS (Capricorn Scientific GmbH), without Ca & Mg and Phenol Red (phosphate-buffered saline, PBS). After adding 5 ml PBS to the cells, the dish was treated with liquid nitrogen until the solution was visibly frozen. These dishes were stored at −80°C until the measurements were carried out. On the day of the measurement, the dishes were removed from the freezer and stored at room temperature until the buffer solution had thawed. The material was collected with a cell scraper and centrifuged (5000 rpm/5 min). The supernatant was discarded, the pellet containing the membrane fragments was resuspended with external buffer containing 0.1% BSA and seeded on microplates. […]

Assay [2] has as its target T1, α2A-AR conformation sensor CAM (Mus musculus, UniProt Q01338).
T1 sequence (Q01338 1-465): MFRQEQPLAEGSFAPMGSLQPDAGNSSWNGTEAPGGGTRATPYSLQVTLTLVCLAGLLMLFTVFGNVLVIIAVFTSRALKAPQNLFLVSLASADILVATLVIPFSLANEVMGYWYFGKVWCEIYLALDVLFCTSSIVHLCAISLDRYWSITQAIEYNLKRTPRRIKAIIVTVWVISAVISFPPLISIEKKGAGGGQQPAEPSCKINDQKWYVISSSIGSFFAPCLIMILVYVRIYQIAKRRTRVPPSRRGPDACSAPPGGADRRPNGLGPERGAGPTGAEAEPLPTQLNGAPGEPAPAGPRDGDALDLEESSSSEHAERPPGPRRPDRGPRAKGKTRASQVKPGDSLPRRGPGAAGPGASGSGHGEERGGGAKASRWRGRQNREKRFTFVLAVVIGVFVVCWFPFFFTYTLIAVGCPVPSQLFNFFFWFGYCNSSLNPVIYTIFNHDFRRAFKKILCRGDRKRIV
In words: FRET-based α2A-AR CAM conformation sensor, single-cell measurements in HEK293 cells. Details: species or system murine. The protocol:
as §1
(§2) The coverslips loaded with stably transfected HEK293 cells containing either the FFA3 receptor, α2A-AR CAM, or ETB receptor conformation sensors were clamped in an Attofluor^TM cell chamber and were washed once with external buffer. Afterward, they were side by side either permeabilized or directly measured at room temperature by the use of an inverted microscope (Elipse Ti2, Nikon, Düsseldorf, Germany), equipped with a 100× oil immersion objective (Plan Apo λ 100 x/1.45 oil ∞/0.17 WD 0.13, Nikon, Düsseldorf, Germany) and dual excitation and dual emission imaging capabilities. […] The fluorescence emission of mT2 and the respective YFP variant was simultaneously collected by a second beamsplitter (488, Chroma, Bellows Falls, Vermont, U.S.A.) and two emission filters (mT2: 474/27, Chroma; YFP: 544/23, Chroma). […] For all single-cell FRET experiments, cells were prospectively selected based on a continuous plasma-membrane fluorescence rim and appropriate fluorescence distribution to ensure a PM-dominant receptor signal. […]

Assay [3] concerns the target T2, FFA3 receptor conformation sensor (Homo sapiens, UniProt O14843).
T2 construct: mT2 insertion and truncation after G314; expressed in transfected cells
T2 sequence (O14843 1-314 limits assumed): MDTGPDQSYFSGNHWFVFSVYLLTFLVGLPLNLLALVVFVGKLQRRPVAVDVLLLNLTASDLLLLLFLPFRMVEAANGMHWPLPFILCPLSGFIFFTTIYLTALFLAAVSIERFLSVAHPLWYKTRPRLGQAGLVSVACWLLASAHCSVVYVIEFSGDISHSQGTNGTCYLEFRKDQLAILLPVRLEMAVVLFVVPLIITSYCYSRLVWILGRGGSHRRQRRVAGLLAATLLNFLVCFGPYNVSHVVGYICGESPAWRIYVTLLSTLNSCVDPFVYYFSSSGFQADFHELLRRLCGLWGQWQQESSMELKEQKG
In words: FRET-based FFA3 receptor conformation sensor, single-cell measurements in HEK293 cells. Here is the method: as §1, §2

For assay [4], the target named is T3, ETB receptor (Homo sapiens, UniProt P24530).
T3 construct: expressed in transfected cells; host or cells: HEK293T (transient)
T3 sequence (P24530 27-442): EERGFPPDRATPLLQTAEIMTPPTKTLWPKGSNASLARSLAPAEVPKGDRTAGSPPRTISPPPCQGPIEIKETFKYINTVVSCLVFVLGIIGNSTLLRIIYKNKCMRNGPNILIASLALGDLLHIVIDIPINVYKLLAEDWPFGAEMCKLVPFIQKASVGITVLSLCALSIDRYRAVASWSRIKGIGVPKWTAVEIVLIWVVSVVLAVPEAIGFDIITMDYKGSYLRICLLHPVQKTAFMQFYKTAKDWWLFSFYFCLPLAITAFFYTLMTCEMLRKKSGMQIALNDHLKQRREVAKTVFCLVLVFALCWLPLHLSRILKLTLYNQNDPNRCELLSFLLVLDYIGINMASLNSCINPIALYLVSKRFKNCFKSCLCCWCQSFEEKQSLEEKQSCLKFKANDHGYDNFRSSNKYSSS
In words: BRET-based G protein activation, wildtype ETB receptor + Gαq biosensor in HEK293T cells. It is filed as cell-based. Here is the method: Two days before BRET measurements were performed, HEK293T cells were transiently transfected with 3 µg of cDNAs containing TP receptor, ETB receptor, DP2 receptor, or S1P3 receptor and 3 µg of cDNAs containing Gβ3-T2A-cpVenus-Gγ9-IRES-Gαq-NLuc or Gβ3-T2A-cpVenus-Gγ9-IRES-Gαo1-NLuc using linear 25 kDa PEI reagent (polyethylenimine, PolyScience Inc., Hirschberg an der Bergstraße, Germany). The ratio between DNA and PEI was 1:3, and 50 µl serum-free DMEM was added per 1 µg DNA. The same amount of serum-free DMEM was also added separately to the PEI solution. DNA-DMEM and PEI-DMEM mixtures were incubated for 5 minutes, followed by incubation of the final mixture for another 10 minutes. […]
Two days before the actual measurement, HEK293T cells were transiently transfected and seeded on microplates. […] The measurements were performed using a Spark 20M plate reader (Tecan) at 37°C. Initially, the cells were measured for the baseline emission ratio. After the baseline measurement, 20 µl of external or internal buffer containing differing concentrations of either U-46619, 4-Ala ET-1, PGD,2 or S1P or external or internal buffer alone were added to the cells and measured. […] The cells were measured from the top and the donor luminescence (NLuc) was recorded at 415 to 470 nm and the acceptor luminescence (cpVenus) at 520 to 590 nm. Data were recorded using SparkControl^TM software. […]
(Bioluminescence resonance energy transfer reports proximity on the nanometre scale.)

No end group written: not given here.

Chain of EP4 receptor conformation sensor (P35408 1-332 limits assumed): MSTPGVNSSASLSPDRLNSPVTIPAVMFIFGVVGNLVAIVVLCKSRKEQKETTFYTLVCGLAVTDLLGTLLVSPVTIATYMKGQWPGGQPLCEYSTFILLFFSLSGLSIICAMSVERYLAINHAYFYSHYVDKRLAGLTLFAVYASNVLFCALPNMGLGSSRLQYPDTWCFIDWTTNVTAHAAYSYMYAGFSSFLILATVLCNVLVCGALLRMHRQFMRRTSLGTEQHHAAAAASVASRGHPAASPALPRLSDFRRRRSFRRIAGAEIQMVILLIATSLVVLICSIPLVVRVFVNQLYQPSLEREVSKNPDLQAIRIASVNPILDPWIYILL

Broadly, the pEC50 is the negative decadic logarithm of the EC50, by convention in mol/L. Higher therefore signals a low EC50. In assay [1] (intact HEK293 cells, multiple-cell FRET on plate reader), `CCCCC[C@H](O)/C=C/[C@H]1CCC(=O)[C@@H]1C/C=C\CCCC(=O)O` [11-deoxy PGE2] returned a pEC50 of 7.08. In addition, the “response of about 10 times EC50 normalized to saturating PGE2 concentration” value is 91% ± 3 in assay [1] (intact cells) and 50% ± 3 in assay [1] (saponin-permeabilized cells).

Consider `CCCCc1nn(-c2ccccc2C(F)(F)F)c(=O)n1Cc1ccc(-c2ccccc2S(=O)(=O)NC(=O)c2sccc2C)cc1` [L-161,982], for which, in assay [1] (intact cells), the “Schild plot slope value of fitted linear regression” value was 1.16 and the “pKB (Schild plot, abscissa intercept)” value is listed as 7.7. Besides, in assay [1] (membrane fragments), the “Schild plot slope value of fitted linear regression” value is 0.69 and the “pKB (Schild plot, abscissa intercept)” value is 6.6.

With `NC[C@H](O)c1ccc(O)c(O)c1` [norepinephrine], the values for the negative-log EC50 (pEC50) in assay [2] (intact cells) and in assay [2] (saponin-permeabilized cells) were 6.10 and 5.63, respectively.

In the case of `CCC(=O)O` [propionate, propionic acid], the pEC50 in assay [3] (intact cells) stood at 3.92; in assay [3] (saponin-permeabilized cells) it was 3.84.

One may read the EC50 as the concentration giving half of the maximal effect. In the case of ASASSLMDKEAVYFAHLDIIW-OH [4-Ala ET-1], the EC50 in assay [4] (intact HEK293T cells) was 8.91 nM; in assay [4] (saponin-permeabilized cells with 1 µM GTP), 0.617 nM.
